The values that follow come from patent US20060269579A1, “Compositions for treating osteoarthritis” (Musculoskeletal Research LLC, priority 2005, published 2006).

Data set [1] has as its target connexin 43 (Homo sapiens, UniProt P17302). To be noted: Leybaert et al. 2003; cited from earlier work.
The subject of data set [2] is synovial lining cells. Conditions: human.
The subject of data set [3] is effect of IL-1 on synovial cells. Conditions: cited from earlier work.

Sequence of connexin 43 (P17302 2-382 limits assumed): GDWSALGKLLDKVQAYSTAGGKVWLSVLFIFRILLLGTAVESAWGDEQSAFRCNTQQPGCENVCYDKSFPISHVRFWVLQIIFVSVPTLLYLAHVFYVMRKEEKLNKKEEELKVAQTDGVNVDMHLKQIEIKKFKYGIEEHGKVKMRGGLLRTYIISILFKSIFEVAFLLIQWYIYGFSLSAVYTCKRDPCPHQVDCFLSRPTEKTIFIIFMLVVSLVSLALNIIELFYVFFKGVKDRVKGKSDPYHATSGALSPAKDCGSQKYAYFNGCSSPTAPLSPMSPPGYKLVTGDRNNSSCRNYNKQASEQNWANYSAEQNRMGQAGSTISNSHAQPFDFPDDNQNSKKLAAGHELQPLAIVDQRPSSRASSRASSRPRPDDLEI

Regarding “SRPTEKTIFII [undecapeptide, connexin 43 residue numbers 204-214, mimetic peptide]”, in data set [1], the “block of connexin 43” value is on record as “able to block connexin 43”. As to `COC(=O)C1=C(C)NC(C)=C(C(=O)OC)C1c1ccccc1[N+](=O)[O-]` [nifedipine], in data set [2], the “concentration in compositions that must not be exceeded” value was not above 2000 µg/mL and the “total dose that must not be exceeded” value was not above 2.0 mg. For the compound “VCYDKSFPISHVR [synthetic tridecapeptide, connexin 43 residue numbers 63-75, mimetic peptide]”, the “block of connexin 43” value in data set [1] was “able to block connexin 43”. With `COc1ccc(CCN(C)CCCC(C#N)(c2ccc(OC)c(OC)c2)C(C)C)cc1OC` (stereo not drawn) [verapamil], in data set [2], the “concentration in compositions that must not be exceeded” value was not above 2000 µg/mL and the “total dose that must not be exceeded” value is on record as not above 2.0 mg. For the same compound, the “interference with the effect of IL-1 on synovial cells” value in data set [3] is listed as “capable of interfering with the effect of IL-1 on synovial cells”. Take `CCN(CC)CCNC(=O)c1ccc(N)cc1` [procainamide]: in data set [2], the “concentration in compositions that must not be exceeded” value was not above 2000 µg/mL and the “total dose that must not be exceeded” value was not above 2.0 mg.
